Assay results from patent US10689381B2 (priority 2017, dated 2020).
Like-named read-outs stand apart in the source and are kept apart here.

How the values were obtained:
L1210 [1] = test: cells; assay type: cell-based, mouse
How it was run: (§1)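 Compound exposure ran 72 h at six concentrations (0–1000 nM or 0–10000 nM, duplicate) on cells plated at 30,000 cells/mL in 10% FBS DMEM. A closing 37 °C incubation took 15 min (HCT116) or 5 min (L1210).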

HCT116 [2] = test: cells; assay type: cell-based, human; settings: for IC50: read-out: IC50 HCT116
How it was run: as §1

Tubulin = settings: FIG. 2; competitive ligand 18 μM
Description: Control studies were performed with BODIPY-VBL in the absence of a competitive ligand (control 1, maximum FI enhancement) and in the absence of tubulin (control 2, no FI enhancement). Percent (%) BODIPY-VBL displacement was calculated by the formula: (control 1 FI−experiment FI)/(Control 1 FI−Control 2 FI)×100%. Reported values are the average of 5 measurements±SD.

A549-T24 = test: cells; assay type: cell-based, human
From the text: (§2) 2001, 98:11737; Kavallaris et al., Brit. J. Cancer. 1999, 80:1020; and Kavallaris et al., J. Clin. Invest. 1997, 100:1282]. As a result, the comparison of cell growth inhibition of candidate drugs against A549 vs A549-T24 has been used to characterize potential resistance due to increased expression of class III β-tubulin [Goncalves et al., Proc. Natl. Acad. Sci. USA. 2001, 98:11737; Kavallaris et al., Brit. J. Cancer. 1999, 80:1020; and Kavallaris et al., J. Clin. Invest. 1997, 100:1282].

A549 = test: cells; assay type: cell-based, human; settings: read-out: IC50 A549
From the text: as §2

HCT116/VM46 = test: cells; assay type: cell-based, human; settings: HCT116/VM46 vs HCT116
Description: Compounds were tested for their cell growth inhibition of L1210 (ATCC no. CCL-219, mouse lymphocytic leukemia), HCT116 (ATCC no. CCL-247, human colorectal carcinoma), and HCT116/VM46 (a vinblastine-resistant strain of HCT116) cells in culture. A population of cells (>1×10^6 cells/mL as determined with a hemocytometer) was diluted with Dulbecco's Modified Eagle Medium (DMEM, Gibco) containing 10% fetal bovine serum (FBS, Gibco) to give a final concentration of 30,000 cells/mL. To each well of a 96-well plate (Corning® Costar®) was added 100 μL of the cell media solution with a multichannel pipet. The cultures were incubated at 37° C. in an atmosphere of 5% CO2 and 95% humidified air for 24 hours.
The test compounds were then added to the plate as follows: test compounds were diluted in DMSO to a concentration of 1 mM. 10-Fold serial dilutions in DMSO were next performed on a separate 96-well plate. Fresh culture media (100 μL) was added to each well of cells resulting in 200 μL of medium per well followed by 2 μL of each test agent. Compounds were tested in duplicate (n=2-8 times) at six concentrations between 0-1000 nM or 0-10000 nM. Following the addition of compound, cultures were incubated for an additional 72 hours.
The plates were incubated at 37° C. for 5 minutes (L1210) or 15 min (HCT116 and HCT116/VM46). After the given incubation time, 50 μL of 0.1 N NaOH was added to each well and the absorption at 405 nm was determined using a 96 well plate reader. […]

L1210 [3] = settings: Table 1, footnote b: Reported in ref. 41; cited from earlier work
HCT116 [4] = settings: cited from earlier work
cells = assay type: cell-based, human; settings: range over L1210 and HCT116, stated in text; read-out: IC50 against vinblastine-sensitive cell lines
How it was run: as §1

[5] = vinblastine-sensitive cell lines

CCC1(NC(=O)c2ccccc2)CC2CN(CCc3c([nH]c4ccccc34)C(C(=O)OC)(c3cc4c(cc3OC)N(C)C3C(O)(C(=O)OC)C(OC(C)=O)C5(CC)C=CCN6CCC43C65)C2)C1 (centres unmarked) [Compound 24]
IC50 (L1210 [1]; Table 2): 1100 pM | potency relative to saturated cyclohexyl counterpart Compound 20 (more potent) (HCT116 [2]): > 50 fold | IC50 (HCT116 [2]; Table 2): 800 pM | potency relative to vinblastine (more potent) (HCT116 [2]; [5]): > 5 fold | percent (%) displacement of tubulin-bound BODIPY-vinblastine (Tubulin): 72±4%

CCC1(NC(=O)c2ccc(NC(=O)OC(C)(C)C)cc2)CC2CN(CCc3c([nH]c4ccccc34)C(C(=O)OC)(c3cc4c(cc3OC)N(C)C3C(O)(C(=O)OC)C(OC(C)=O)C5(CC)C=CCN6CCC43C65)C2)C1 (centres unmarked) [Compound 60]
IC50 (L1210 [1]): 60 pM | IC50 (L1210 [1]; Table 2): 300 pM | IC50 (HCT116 [2]; Table 2): 300 pM | IC50 (HCT116 [2]): 70 pM | IC50 (A549-T24): 90 pM | IC50 (A549): 190 pM

CC[C@]1(NC(=O)c2ccc(N(C)C)cc2)C[C@H]2CN(CCc3c([nH]c4ccccc34)[C@@](C(=O)OC)(c3cc4c(cc3OC)N(C)[C@H]3[C@@](O)(C(=O)OC)[C@H](OC(C)=O)[C@]5(CC)C=CCN6CC[C@]43[C@@H]65)C2)C1 [Compound 64]
IC50 (L1210 [1]; Table 2): 180 pM | IC50 (HCT116 [2]; Table 2): 180 pM | percent (%) displacement of tubulin-bound BODIPY-vinblastine (Tubulin): 88±5%

CC[C@]1(NC(=O)c2ccc(NS(C)(=O)=O)cc2)C[C@H]2CN(CCc3c([nH]c4ccccc34)[C@@](C(=O)OC)(c3cc4c(cc3OC)N(C)[C@H]3[C@@](O)(C(=O)OC)[C@H](OC(C)=O)[C@]5(CC)C=CCN6CC[C@]43[C@@H]65)C2)C1 [Compound 61]
IC50 (L1210 [1]): 60 pM | IC50 (L1210 [1]; Table 2): 400 pM | IC50 (HCT116 [2]; Table 2): 300 pM | IC50 (HCT116 [2]): 70 pM | IC50 (A549-T24): 260 pM | IC50 (A549): 530 pM

CC[C@]1(NC(C)=O)C[C@H]2CN(CCc3c([nH]c4ccccc34)[C@@](C(=O)OC)(c3cc4c(cc3OC)N(C)[C@H]3[C@@](O)(C(=O)OC)[C@H](OC(C)=O)[C@]5(CC)C=CCN6CC[C@]43[C@@H]65)C2)C1 [Compound 10, 20′-Acetamidovinblastine]
activity relative to free amine Compound 6 (more active) (HCT116 [2]): 10 fold | potency relative to vinblastine (less potent / reduced activity) (HCT116 [2]; [5]): approximately 10 fold | differential in activity between sensitive and resistant HCT116 cell lines (HCT116/VM46): ~80 fold | IC50 (L1210 [3]): 65000 pM | IC50 (HCT116 [4]; Table 1, footnote b: Reported in ref. 41): 90000 pM

CC[C@]1(NC(=O)c2ccc(C#N)cc2)C[C@H]2CN(CCc3c([nH]c4ccccc34)[C@@](C(=O)OC)(c3cc4c(cc3OC)N(C)[C@H]3[C@@](O)(C(=O)OC)[C@H](OC(C)=O)[C@]5(CC)C=CCN6CC[C@]43[C@@H]65)C2)C1 [Compound 54]
IC50 (L1210 [1]; Table 2): 4400 pM | IC50 (HCT116 [2]; Table 2): 3100 pM | percent (%) displacement of tubulin-bound BODIPY-vinblastine (Tubulin): 56±5%

CC[C@]1(NC(=O)c2ccc(OC)c(OC)c2)C[C@H]2CN(CCc3c([nH]c4ccc(F)cc34)[C@@](C(=O)OC)(c3cc4c(cc3OC)N(C)[C@H]3[C@@](O)(C(=O)OC)[C@H](OC(C)=O)[C@]5(CC)C=CCN6CC[C@]43[C@@H]65)C2)C1 [Compound 190]
IC50 (L1210 [1]; Table 8, 10′-F compounds): 60 pM | IC50 (cells): 60 to 80 pM | IC50 (HCT116 [2]; Table 8, 10′-F compounds): 80 pM

CCC1(O)C[C@H]2CN(CCc3c([nH]c4ccc(F)cc34)[C@@](C(=O)OC)(c3cc4c(cc3OC)N(C)C3C(O)(C(=O)OC)[C@H](OC(C)=O)[C@]5(CC)C=CCN6CC[C@]43[C@@H]65)C2)C1 (some centres unmarked) [Compound 187, 10′-fluorovinblastine, reference compound]
IC50 (L1210 [1]; Mus musculus, L1210, Table 8, 10′-F compounds): 600 pM | IC50 (L1210 [1]; Mus musculus, L1210, table b183): 700 pM | IC50 (HCT116 [2]; Homo sapiens, HCT-116, Table 8, 10′-F compounds): 700 pM | IC50 (HCT116 [2]; Homo sapiens, HCT-116, table b183): 800 pM | IC50 (A549-T24; Homo sapiens): < 8000 pM | IC50 (A549; Homo sapiens, A549): 2900 pM | improvement in activity over vinblastine (HCT116 [4]; recent work, Gotoh et al. 2011): ~10 fold
